# In PubChem BioAssay AID1745844 (Carcinogenic Potency Database (CPDB), 2022):
# The source made the active and inactive calls. How the calls were made is not given here.
# Test system: rodent lifetime carcinogenesis bioassay, tumor incidence TD50
# Assay: chronic cancer bioassays in animals – CPDB, compiled studies (AID 1745844)
structure (smiles),measurement,setting,value
C[C@@H]1Cc2c(Cl)cc(C(=O)N[C@@H](Cc3ccccc3)C(=O)O)c(O)c2C(=O)O1,TD50,"mouse, strain B6C3F1, females, in feed, site: liver, lesion: hepatocellular adenoma, dosed 104 weeks, study length 104 weeks",109 mg/kg/day
same,TD50,"mouse, strain B6C3F1, females, in feed, site: liver, lesion: hepatocellular carcinoma, dosed 104 weeks, study length 104 weeks",34.8 mg/kg/day
same,TD50,"mouse, strain B6C3F1, males, in feed, site: kidney, lesion: adenoma, dosed 104 weeks, study length 104 weeks",4.64 mg/kg/day
same,TD50,"mouse, strain B6C3F1, males, in feed, site: kidney, lesion: carcinoma, dosed 104 weeks, study length 104 weeks",10.3 mg/kg/day
same,TD50,"mouse, strain B6C3F1, males, in feed, site: kidney, lesion: several types, types named in the paper, dosed 104 weeks, study length 104 weeks",3.53 mg/kg/day
same,TD50,"mouse, strain B6C3F1, males, in feed, site: liver, lesion: hepatocellular adenoma, dosed 104 weeks, study length 104 weeks",48.1 mg/kg/day
same,TD50,"mouse, strain B6C3F1, males, in feed, site: liver, lesion: hepatocellular carcinoma, dosed 104 weeks, study length 104 weeks",58.7 mg/kg/day
same,carcinogen call,"rat, strain DA (from Hannover), females, by gavage, site: kidney, lesion: one or several types, types not named, dosed 110 weeks, study length 110 weeks",negative (inactive)
same,TD50,"rat, strain DA (from Hannover), males, by gavage, site: kidney, lesion: adenocarcinoma, dosed 110 weeks, study length 110 weeks",0.368 mg/kg/day
same,TD50,"rat, strain DA (from Hannover), males, by gavage, site: urinary bladder, lesion: transitional-cell carcinoma, dosed 110 weeks, study length 110 weeks",1.18 mg/kg/day
same,TD50,"rat, strain Fischer 344, females, by gavage, site: kidney + mammary gland, lesion: tubule adenoma + tubule carcinoma + fibroadenoma, dosed 103 weeks, study length 104 weeks",0.386 mg/kg/day
same,TD50,"rat, strain Fischer 344, females, by gavage, site: kidney, lesion: tubule adenoma + tubule carcinoma, dosed 103 weeks, study length 104 weeks",0.485 mg/kg/day
same,TD50,"rat, strain Fischer 344, females, by gavage, site: kidney, lesion: tubule adenoma, dosed 103 weeks, study length 104 weeks",0.813 mg/kg/day
same,TD50,"rat, strain Fischer 344, females, by gavage, site: kidney, lesion: tubule carcinoma, dosed 103 weeks, study length 104 weeks",1.31 mg/kg/day
same,TD50,"rat, strain Fischer 344, females, by gavage, site: mammary gland, lesion: fibroadenoma, dosed 103 weeks, study length 104 weeks",0.55 mg/kg/day
same,TD50,"rat, strain Fischer 344, males, by gavage, site: any site (literature study), lesion: several types, types named in the paper, dosed 103 weeks, study length 104 weeks",0.0863 mg/kg/day
same,TD50,"rat, strain Fischer 344, males, by gavage, site: kidney, lesion: tubule adenoma + tubule carcinoma + tubule epithelium adenoma + tubular-cell carcinoma, bilateral, dosed 103 weeks, study length 104 weeks",0.0579 mg/kg/day
same,TD50,"rat, strain Fischer 344, males, by gavage, site: kidney, lesion: tubule adenoma + tubule epithelium adenoma, dosed 103 weeks, study length 104 weeks",0.241 mg/kg/day
same,TD50,"rat, strain Fischer 344, males, by gavage, site: kidney, lesion: tubule carcinoma + tubular-cell carcinoma, bilateral, dosed 103 weeks, study length 104 weeks",0.0756 mg/kg/day
same,TD50,"rat, strain Fischer 344, males, by gavage, site: liver, lesion: hepatocellular adenoma + hepatocellular carcinoma + neoplastic nodule, dosed 103 weeks, study length 104 weeks",2.5 mg/kg/day
same,TD50,"rat, strain Lewis, females, by gavage, site: kidney, lesion: adenocarcinoma, dosed 110 weeks, study length 110 weeks",2.56 mg/kg/day
same,TD50,"rat, strain Lewis, males, by gavage, site: kidney, lesion: adenocarcinoma, dosed 110 weeks, study length 110 weeks",1.25 mg/kg/day
same,carcinogen call,"rat, strain Wistar, both sexes, by gavage, site: any site (literature study), lesion: one or several types, types not named, dosed 50 weeks, study length 110 weeks",negative (inactive)
COc1cc(OC)c2c3c(c(=O)oc2c1)CCC3=O,carcinogen call,"rat, strain Fischer, males, by gavage, site: liver, lesion: one or several types, types not named, dosed 52 weeks, study length 74 weeks",negative (inactive)
FC(F)(F)C(Cl)Cl,TD50,"rat, strain Charles River CD (Sprague-Dawley), females, inhaled, site: liver, lesion: cholangiofibroma, dosed 105 weeks, study length 105 weeks",22700 mg/kg/day
same,TD50,"rat, strain Charles River CD (Sprague-Dawley), females, inhaled, site: liver, lesion: hepatocellular adenoma, dosed 105 weeks, study length 105 weeks",20300 mg/kg/day
same,TD50,"rat, strain Charles River CD (Sprague-Dawley), females, inhaled, site: pancreas, lesion: acinar-cell adenoma, dosed 105 weeks, study length 105 weeks",92100 mg/kg/day
same,TD50,"rat, strain Charles River CD (Sprague-Dawley), males, inhaled, site: liver, lesion: hepatocellular adenoma, dosed 105 weeks, study length 105 weeks",13100 mg/kg/day
same,TD50,"rat, strain Charles River CD (Sprague-Dawley), males, inhaled, site: pancreas, lesion: acinar-cell adenoma, dosed 105 weeks, study length 105 weeks",1260 mg/kg/day
same,TD50,"rat, strain Charles River CD (Sprague-Dawley), males, inhaled, site: pancreas, lesion: acinar-cell carcinoma, dosed 105 weeks, study length 105 weeks",60800 mg/kg/day
same,TD50,"rat, strain Charles River CD (Sprague-Dawley), males, inhaled, site: testis, lesion: interstitial-cell adenoma, dosed 105 weeks, study length 105 weeks",9050 mg/kg/day
O=S(=O)(O)c1ccc(N=Nc2c(O)ccc3cc(S(=O)(=O)O)ccc23)cc1,carcinogen call,"mouse, strain B6C3F1, females, in feed, site: any site (literature study), lesion: several types, types named in the paper, dosed 103 weeks, study length 104 weeks",negative (inactive)
same,TD50,"mouse, strain B6C3F1, females, in feed, site: lung, lesion: alveolar/bronchiolar adenoma + alveolar/bronchiolar carcinoma, dosed 103 weeks, study length 104 weeks",66400 mg/kg/day
same,TD50,"mouse, strain B6C3F1, males, in feed, site: any site (literature study), lesion: several types, types named in the paper, dosed 103 weeks, study length 103 weeks",17800 mg/kg/day
same,TD50,"mouse, strain B6C3F1, males, in feed, site: liver, lesion: hepatocellular adenoma + hepatocellular carcinoma + neoplastic nodule, dosed 103 weeks, study length 103 weeks",14200 mg/kg/day
same,TD50,"mouse, strain B6C3F1, males, in feed, site: skin, lesion: fibrosarcoma + fibroma, dosed 103 weeks, study length 103 weeks",37500 mg/kg/day (inactive)
same,carcinogen call,"mouse, strain Charles River CD (Sprague-Dawley), females, in feed, site: liver, lesion: one or several types, types not named, dosed 80 weeks, study length 80 weeks",negative (inactive)
same,carcinogen call,"mouse, strain Charles River CD (Sprague-Dawley), females, in feed, site: lung, lesion: adenoma, dosed 80 weeks, study length 80 weeks",negative (inactive)
same,carcinogen call,"mouse, strain Charles River CD (Sprague-Dawley), males, in feed, site: liver, lesion: one or several types, types not named, dosed 80 weeks, study length 80 weeks",negative (inactive)
same,carcinogen call,"mouse, strain Charles River CD (Sprague-Dawley), males, in feed, site: lung, lesion: adenoma, dosed 80 weeks, study length 80 weeks",negative (inactive)
same,TD50,"rat, strain Fischer 344, females, in feed, site: any site (literature study), lesion: several types, types named in the paper, dosed 103 weeks, study length 104 weeks",9060 mg/kg/day (inactive)
same,TD50,"rat, strain Fischer 344, males, in feed, site: any site (literature study), lesion: several types, types named in the paper, dosed 103 weeks, study length 104 weeks",11800 mg/kg/day (inactive)
same,TD50,"rat, strain Fischer 344, males, in feed, site: liver, lesion: hepatocellular adenoma + hepatocellular carcinoma + neoplastic nodule, dosed 103 weeks, study length 104 weeks",2520 mg/kg/day
same,TD50,"rat, strain Not specified, females, in feed, site: any site (literature study), lesion: several types, types named in the paper, dosed 64 weeks, study length 64 weeks",87.4 mg/kg/day (inactive)
same,carcinogen call,"rat, strain Not specified, females, in feed, site: liver, lesion: one or several types, types not named, dosed 64 weeks, study length 64 weeks",negative (inactive)
same,TD50,"rat, strain Not specified, males, in feed, site: any site (literature study), lesion: several types, types named in the paper, dosed 64 weeks, study length 64 weeks",14000 mg/kg/day (inactive)
same,carcinogen call,"rat, strain Not specified, males, in feed, site: liver, lesion: one or several types, types not named, dosed 64 weeks, study length 64 weeks",negative (inactive)
[K+],TD50,"rat, strain F344/DuCrj, females, in drinking water, site: submandibular salivary gland, lesion: squamous-cell carcinoma, dosed 104 weeks, study length 104 weeks",560 mg/kg/day
same,TD50,"rat, strain F344/DuCrj, females, in drinking water, site: uterus, lesion: endometrial stromal polyp, dosed 104 weeks, study length 104 weeks",204 mg/kg/day (inactive)
same,TD50,"rat, strain F344/DuCrj, males, in drinking water, site: submandibular salivary gland, lesion: squamous-cell carcinoma, dosed 104 weeks, study length 104 weeks",363 mg/kg/day
COc1cc(S(C)=O)ccc1-c1nc2ccncc2[nH]1 (stereo not drawn),TD50,"rat, strain Fischer 344, females, in feed, site: adrenal medulla, lesion: pheochromocytoma, benign, dosed 104 weeks, study length 104 weeks",450 mg/kg/day
same,TD50,"rat, strain Fischer 344, females, in feed, site: adrenal medulla, lesion: several types, types named in the paper, dosed 104 weeks, study length 104 weeks",385 mg/kg/day
same,TD50,"rat, strain Fischer 344, males, in feed, site: adrenal medulla, lesion: pheochromocytoma, benign, dosed 104 weeks, study length 104 weeks",45.4 mg/kg/day
same,TD50,"rat, strain Fischer 344, males, in feed, site: adrenal medulla, lesion: pheochromocytoma, malignant, dosed 104 weeks, study length 104 weeks",481 mg/kg/day
same,TD50,"rat, strain Fischer 344, males, in feed, site: adrenal medulla, lesion: several types, types named in the paper, dosed 104 weeks, study length 104 weeks",38.8 mg/kg/day
Cc1c(N(C)C)c(=O)n(-c2ccccc2)n1C,carcinogen call,"mouse, strain B6C3F1, females, in drinking water, site: any site (literature study), lesion: one or several types, types not named, dosed 100 weeks, study length 104 weeks",negative (inactive)
same,TD50,"mouse, strain B6C3F1, females, in drinking water, site: liver, lesion: hepatocellular adenoma, dosed 100 weeks, study length 104 weeks",6150 mg/kg/day (inactive)
same,carcinogen call,"mouse, strain B6C3F1, females, in drinking water, site: liver, lesion: hepatocellular carcinoma, dosed 100 weeks, study length 104 weeks",negative (inactive)
same,carcinogen call,"mouse, strain B6C3F1, females, in drinking water, site: lung, lesion: alveolar/bronchiolar adenoma, dosed 100 weeks, study length 104 weeks",negative (inactive)
same,TD50,"mouse, strain B6C3F1, females, in drinking water, site: lung, lesion: alveolar/bronchiolar carcinoma, dosed 100 weeks, study length 104 weeks",6540 mg/kg/day (inactive)
same,TD50,"mouse, strain B6C3F1, males, in drinking water, site: any site (literature study), lesion: one or several types, types not named, dosed 100 weeks, study length 104 weeks",156 mg/kg/day (inactive)
same,TD50,"mouse, strain B6C3F1, males, in drinking water, site: liver, lesion: hepatocellular adenoma, dosed 100 weeks, study length 104 weeks",683 mg/kg/day (inactive)
same,TD50,"mouse, strain B6C3F1, males, in drinking water, site: liver, lesion: hepatocellular carcinoma, dosed 100 weeks, study length 104 weeks",5390 mg/kg/day (inactive)
same,TD50,"mouse, strain B6C3F1, males, in drinking water, site: lung, lesion: alveolar/bronchiolar adenoma, dosed 100 weeks, study length 104 weeks",1480 mg/kg/day (inactive)
same,carcinogen call,"mouse, strain B6C3F1, males, in drinking water, site: lung, lesion: alveolar/bronchiolar carcinoma, dosed 100 weeks, study length 104 weeks",negative (inactive)
CCSC[C@H](N)C(=O)O,TD50,"rat, strain Wistar, males, in feed, site: abdomen, lesion: liposarcoma, dosed 58 weeks, study length 89 weeks",3630 mg/kg/day (inactive)
same,TD50,"rat, strain Wistar, males, in feed, site: any site (literature study), lesion: several types, types named in the paper, dosed 58 weeks, study length 89 weeks",3630 mg/kg/day (inactive)
same,carcinogen call,"rat, strain Wistar, males, in feed, site: liver, lesion: one or several types, types not named, dosed 58 weeks, study length 89 weeks",negative (inactive)
